Results published in ChEMBL document CHEMBL3885861, “Open TG-GATES”.

Species on record: Rattus norvegicus
Test: Open TG-GATES - Regimen: Single
Assay type: toxicity, organism-based, Sprague-Dawley
Design: regimen Single, gender Male, age 6 weeks
Conditions: in vivo, po, 0 mg/kg, route gavage, dose level Control; for APTT / Bas / Eos / Fbg / Hb / Ht / Lym / MCH / MCHC / MCV / Mono / Neu / PT / Plat / RBC / Ret / WBC: tissue Blood; for KIDNEY_L / KIDNEY_R / KIDNEY_TOTAL: tissue Kidney; for LIVER: tissue Liver; for A/G / ALP / ALT / AST / BUN / CRE / Ca / Cl / DBIL / GLC / IP / K / LDH / Na / PL / RALB / TBIL / TC / TG / TP / gamma-GTP: tissue Plasma

Cc1nnc2n1-c1ccc(Cl)cc1C(c1ccccc1Cl)=NC2 [TRIAZOLAM]
TERMINAL_BW (3 h): 194.1 g
APTT (3 h): 20.7 s
Bas (3 h): 0%
Eos (3 h): 0.8%
Fbg (3 h): 266.4 mg/dL
Hb (3 h): 13.6 g/dL
Ht (3 h): 41.4%
Lym (3 h): 76%
MCH (3 h): 21.2 pg
MCHC (3 h): 32.8%
MCV (3 h): 64.7 fL
Mono (3 h): 3%
Neu (3 h): 19.2%
PT (3 h): 13.6 s
Plat (3 h): 126 x10_4/uL
RBC (3 h): 640.6 x10_4/ul
Ret (3 h): 9.3%
WBC (3 h): 96.6 x10_2/uL
KIDNEY_L (3 h): 0.8 g
KIDNEY_R (3 h): 0.8 g
KIDNEY_TOTAL (3 h): 1.6 g
LIVER (3 h): 8.3 g
A/G (3 h): 0.9
ALP (3 h): 1477.8 IU/L
ALT (3 h): 39.8 IU/L
AST (3 h): 72.4 IU/L
BUN (3 h): 10.6 mg/dL
CRE (3 h): 0.2 mg/dL
Ca (3 h): 11.3 mg/dL
Cl (3 h): 105.6 meq/L
DBIL (3 h): 0.012 mg/dL
GLC (3 h): 179.2 mg/dL
IP (3 h): 9.1 mg/dL
K (3 h): 4.3 meq/L
LDH (3 h): 100 IU/L
Na (3 h): 140.8 meq/L
PL (3 h): 150.2 mg/dL
RALB (3 h): 2.5 g/dL
TBIL (3 h): 0.062 mg/dL
TC (3 h): 87.8 mg/dL
TG (3 h): 47.6 mg/dL
TP (3 h): 5.2 g/dL
gamma-GTP (3 h): 1.2 IU/L
TERMINAL_BW (6 h): 191.8 g
APTT (6 h): 17.3 s
Bas (6 h): 0%
Eos (6 h): 0.8%
Fbg (6 h): 258.8 mg/dL
Hb (6 h): 13.6 g/dL
Ht (6 h): 41.3%
Lym (6 h): 81.4%
MCH (6 h): 21.3 pg
MCHC (6 h): 33%
MCV (6 h): 64.7 fL
Mono (6 h): 2.2%
Neu (6 h): 15%
PT (6 h): 13.5 s
Plat (6 h): 133.4 x10_4/uL
RBC (6 h): 639.4 x10_4/ul
Ret (6 h): 8.5%
WBC (6 h): 82 x10_2/uL
KIDNEY_L (6 h): 0.9 g
KIDNEY_R (6 h): 0.9 g
KIDNEY_TOTAL (6 h): 1.7 g
LIVER (6 h): 7.7 g
A/G (6 h): 0.9
ALP (6 h): 1476.8 IU/L
ALT (6 h): 33.6 IU/L
AST (6 h): 72 IU/L
BUN (6 h): 7.8 mg/dL
CRE (6 h): 0.2 mg/dL
Ca (6 h): 10.7 mg/dL
Cl (6 h): 106.8 meq/L
DBIL (6 h): 0.01 mg/dL
GLC (6 h): 177.8 mg/dL
IP (6 h): 9.4 mg/dL
K (6 h): 4.1 meq/L
LDH (6 h): 104.2 IU/L
Na (6 h): 141.8 meq/L
PL (6 h): 138 mg/dL
RALB (6 h): 2.5 g/dL
TBIL (6 h): 0.068 mg/dL
TC (6 h): 75.4 mg/dL
TG (6 h): 51.6 mg/dL
TP (6 h): 5.1 g/dL
gamma-GTP (6 h): 1 IU/L
TERMINAL_BW (9 h): 192.1 g
APTT (9 h): 17.5 s
Bas (9 h): 0%
Eos (9 h): 0.6%
Fbg (9 h): 271.8 mg/dL
Hb (9 h): 13.2 g/dL
Ht (9 h): 40.4%
Lym (9 h): 77.4%
MCH (9 h): 20.9 pg
MCHC (9 h): 32.7%
MCV (9 h): 64 fL
Mono (9 h): 2%
Neu (9 h): 19.4%
PT (9 h): 13.7 s
Plat (9 h): 112 x10_4/uL
RBC (9 h): 631.8 x10_4/ul
Ret (9 h): 8.8%
WBC (9 h): 96.7 x10_2/uL
KIDNEY_L (9 h): 0.9 g
KIDNEY_R (9 h): 0.9 g
KIDNEY_TOTAL (9 h): 1.7 g
LIVER (9 h): 7.6 g
A/G (9 h): 0.9
ALP (9 h): 1320.2 IU/L
ALT (9 h): 40.6 IU/L
AST (9 h): 75 IU/L
BUN (9 h): 9.2 mg/dL
CRE (9 h): 0.2 mg/dL
Ca (9 h): 10.6 mg/dL
Cl (9 h): 106 meq/L
DBIL (9 h): 0.008 mg/dL
GLC (9 h): 188.4 mg/dL
IP (9 h): 10.4 mg/dL
K (9 h): 4.1 meq/L
LDH (9 h): 79.8 IU/L
Na (9 h): 141.6 meq/L
PL (9 h): 132.4 mg/dL
RALB (9 h): 2.4 g/dL
TBIL (9 h): 0.062 mg/dL
TC (9 h): 71.8 mg/dL
TG (9 h): 40.8 mg/dL
TP (9 h): 5.1 g/dL
gamma-GTP (9 h): 1.2 IU/L
TERMINAL_BW (24 h): 207 g
APTT (24 h): 20.6 s
Bas (24 h): 0%
Eos (24 h): 1%
Fbg (24 h): 279.8 mg/dL
Hb (24 h): 13.2 g/dL
Ht (24 h): 40.3%
Lym (24 h): 78%
MCH (24 h): 21.1 pg
MCHC (24 h): 32.9%
MCV (24 h): 64.1 fL
Mono (24 h): 3%
Neu (24 h): 16.6%
PT (24 h): 13.1 s
Plat (24 h): 116.7 x10_4/uL
RBC (24 h): 628.2 x10_4/ul
Ret (24 h): 8.3%
WBC (24 h): 87 x10_2/uL
KIDNEY_L (24 h): 0.9 g
KIDNEY_R (24 h): 0.9 g
KIDNEY_TOTAL (24 h): 1.8 g
LIVER (24 h): 9.5 g
A/G (24 h): 0.9
ALP (24 h): 1736 IU/L
ALT (24 h): 50 IU/L
AST (24 h): 79.4 IU/L
BUN (24 h): 13.6 mg/dL
CRE (24 h): 0.2 mg/dL
Ca (24 h): 11 mg/dL
Cl (24 h): 105.2 meq/L
DBIL (24 h): 0.01 mg/dL
GLC (24 h): 178.4 mg/dL
IP (24 h): 8.3 mg/dL
K (24 h): 4.2 meq/L
LDH (24 h): 109.8 IU/L
Na (24 h): 141.2 meq/L
PL (24 h): 145.8 mg/dL
RALB (24 h): 2.5 g/dL
TBIL (24 h): 0.054 mg/dL
TC (24 h): 77.4 mg/dL
TG (24 h): 80.8 mg/dL
TP (24 h): 5.3 g/dL
gamma-GTP (24 h): 1 IU/L
